According to patent US7943162B2, “Drug delivery device” (Alcon, Inc., priority 1999, dated 2011):

Assay: ocular pharmacokinetic study with rabbits implanted with ophthalmic drug delivery device 50 (LC-MS/MS tissue concentration)
Assay type: in vivo, New Zealand White rabbits
Conditions: device 50 implanted on outer sclera below Tenon's capsule
Excerpt: Device 50 was constructed as shown in FIGS. 5 through 6B, with the following dimensions. […] Inner core 106 was a cylindrical tablet with a diameter of about 5.0 mm and a thickness of about 1.5 mm. […] The pharmaceutically active agent used in tablet 106 was 4,9(11)-Pregnadien-17α,21-diol-3,20-dione, an angiostatic steroid sold by Steraloids, Inc. of Wilton, N.H., and which is more fully disclosed in U.S. Pat. Nos. 5,770,592 and 5,679,666. The formulation of tablet 106 consisted of 99.75 weight percent 4,9(11)-Pregnadien-17α,21-diol-3,20-dione, and 0.25 weight percent magnesium stearate.
At one week after implantation, 4 rabbits were euthanized and their right eyes were enucleated. The device 50 was removed from the eyes, and the location of tablet 106 was marked on their sclerae. Following the removal of the anterior segment and the vitreous of each eye and inversion of the thus formed eye-cup, a 10 mm diameter circular zone of retinal tissue, concentric with and below the location of tablet 106 on the sclera, was harvested (the “target site”). […] All these tissues were separately homogenized, and the concentration of angiostatic steroid in each of these tissues was determined via an ocular pharmacokinetic study using high performance liquid chromatography and mass spectrometry analysis (LC-MS/MS). […]

C[C@]12CCC(=O)C=C1CC[C@@H]1C2=CC[C@@]2(C)[C@H]1CC[C@]2(O)C(=O)CO [4,9(11)-Pregnadien-17α,21-diol-3,20-dione]
mean concentration of angiostatic steroid in the retina and the choroid at the target site as a function of time (right eye, tablet 99.75 wt% drug, target site below tablet, 1, 3, 6, 9, 12 weeks after implantation, up to twelve weeks): pharmaceutically effective and generally constant amount | levels of angiostatic steroid in the retina and the choroid at the second and third sites (second site remote from the target site, on the other side of the optic nerve, third site between the second site and the target site): at or near zero
